{"source": "ChEMBL document CHEMBL5244281", "about": "“Tackling multidrug-resistant Staphylococcus aureus by natural products and their analogues acting as NorA efflux pump inhibitors” (Bioorg Med Chem, 2023)", "key": {"[1]": {"system": "Mycolicibacterium smegmatis", "experiment": "Antibacterial activity against Mycobacterium smegmatis ATCC 607 assessed as bacterial growth inhibition incubated for 3 days by CLSI protocol based microbroth dilution method", "assay_type": "functional", "conditions": "ATCC 607, 72 h, time 3 day"}, "[2]": {"system": "Staphylococcus aureus", "experiment": "Antibacterial activity against Staphylococcus aureus NCTC 8325-4 assessed as bacterial growth inhibition incubated for 18 hrs by broth microdilution method", "assay_type": "functional"}, "[3]": {"system": "Staphylococcus aureus", "experiment": "Synergistic antibacterial activity against methicillin-resistant Staphylococcus aureus clinical isolate assessed as fractional inhibitory concentration index in presence of ciprofloxacin by checkerboard assay", "assay_type": "functional"}, "[4]": {"system": "Staphylococcus aureus", "experiment": "Antibacterial activity against methicillin-resistant Staphylococcus aureus clinical isolate assessed as bacterial growth inhibition by broth dilution method", "assay_type": "functional"}, "[5]": {"target": "T1, Quinolone resistance protein NorA (Staphylococcus aureus) (UniProt P0A0J7)", "T1 sequence (whole entry)": "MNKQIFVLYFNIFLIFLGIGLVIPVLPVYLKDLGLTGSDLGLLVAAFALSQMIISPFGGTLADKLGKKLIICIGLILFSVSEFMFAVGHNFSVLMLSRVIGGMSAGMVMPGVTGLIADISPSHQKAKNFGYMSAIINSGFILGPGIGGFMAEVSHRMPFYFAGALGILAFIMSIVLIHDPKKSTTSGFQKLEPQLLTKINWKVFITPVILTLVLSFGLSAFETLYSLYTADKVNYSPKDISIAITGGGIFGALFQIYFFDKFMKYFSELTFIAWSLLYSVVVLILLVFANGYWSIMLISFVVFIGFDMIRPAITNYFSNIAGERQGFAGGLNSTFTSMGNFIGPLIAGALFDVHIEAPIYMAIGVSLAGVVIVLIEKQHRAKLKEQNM", "experiment": "Inhibition of NorA efflux pump in Staphylococcus aureus 1199B overexpressing NorA efflux pump assessed as decrease in ciprofloxacin MIC and […] (Rvb=8 ug/ml)"}, "[6]": {"target": "T1, Quinolone resistance protein NorA (Staphylococcus aureus)", "experiment": "Inhibition of NorA efflux pump in methicillin-resistant Staphylococcus aureus clinical isolate assessed as decrease in ciprofloxacin MIC and measured for 20 mins in presence of ciprofloxacin by spectrofluorimetric analysis (Rvb=128 ug/ml)"}, "[7]": {"target": "T1, Quinolone resistance protein NorA (Staphylococcus aureus)", "experiment": "Inhibition of NorA efflux pump in methicillin-resistant Staphylococcus aureus clinical isolate assessed as EtBr MIC using EtBr as substrate at 64 ug/ml and measured for 20 mins by spectrofluorimetric analysis (Rvb=[…] ug/ml)", "conditions": "dose 64.0 µg/ml"}, "[8]": {"system": "Staphylococcus aureus", "experiment": "Antibacterial activity against norfloxacin resistant Staphylococcus aureus 1199B harboring NorA efflux pump assessed as bacterial growth inhibition incubated for 24 hrs by broth microdilution method", "assay_type": "functional"}, "[9]": {"target": "T1, Quinolone resistance protein NorA (Staphylococcus aureus)", "conditions": "1199B"}, "[10]": {"system": "Staphylococcus aureus", "experiment": "Potentiation of tetracycline-induced inhibition of TetK efflux pump in Staphylococcus aureus IS-58 overexpressing TetK efflux pump assessed as reduction in tetracycline MIC at 1/8 times of MIC incubated for 24 hrs by resazurin based assay (Rvb=192 ug/ml)"}, "[11]": {"system": "Staphylococcus aureus", "experiment": "Antibacterial activity against Staphylococcus aureus IS-58 harboring TetK efflux pump protein assessed as bacterial growth inhibition incubated for 24 hrs by broth microdilution method", "assay_type": "functional"}, "[12]": {"system": "Staphylococcus aureus", "experiment": "Antibacterial activity against methicillin resistant Staphylococcus aureus clinical isolates assessed as bacterial growth inhibition", "assay_type": "functional"}, "[13]": {"system": "Staphylococcus aureus", "experiment": "Synergistic antibacterial activity against methicillin resistant Staphylococcus aureus clinical isolates assessed as fractional inhibitory concentration index in presence of ciprofloxacin", "assay_type": "functional"}, "[14]": {"system": "Staphylococcus aureus", "experiment": "Synergistic antibacterial activity against methicillin resistant Staphylococcus aureus clinical isolates assessed as fractional inhibitory concentration index in presence of norfloxacin", "assay_type": "functional"}, "[15]": {"system": "Staphylococcus aureus", "experiment": "Synergistic antibacterial activity against methicillin resistant Staphylococcus aureus clinical isolates assessed as fractional inhibitory concentration index in presence of ofloxacin", "assay_type": "functional"}, "[16]": {"target": "T1, Quinolone resistance protein NorA (Staphylococcus aureus)", "experiment": "Potentiation of ciprofloxacin-induced inhibition of NorA efflux pump in Staphylococcus aureus 1199 assessed as ciprofloxacin MIC at 100 ug/ml for 18 to 20 hrs by checkerboard method (Rvb=0.25 ug/ml)", "conditions": "dose 100.0 µg/ml, time 18-20 hrs"}, "[17]": {"target": "T1, Quinolone resistance protein NorA (Staphylococcus aureus)", "experiment": "Potentiation of ciprofloxacin-induced inhibition of NorA efflux pump in Staphylococcus aureus 1199B overexpressing NorA efflux pump assessed as ciprofloxacin MIC at 100 ug/ml for 18 to 20 hrs by checkerboard method (Rvb=4 ug/ml)", "conditions": "dose 100.0 µg/ml, time 18-20 hrs"}, "[18]": {"target": "T1, Quinolone resistance protein NorA (Staphylococcus aureus)", "experiment": "Inhibition of NorA efflux pump in Staphylococcus aureus 1199B overexpressing NorA efflux pump assessed as minimum effective concentration for 18 to 20 hrs", "conditions": "time 18-20 hrs"}, "[19]": {"system": "Staphylococcus aureus", "experiment": "Antibacterial activity against methicillin-resistant Staphylococcus aureus 1199B overexpressing NorA efflux pump assessed as bacterial growth inhibition incubated for 18 hrs by broth microdilution method", "assay_type": "functional"}, "[20]": {"system": "Staphylococcus aureus", "experiment": "Antibacterial activity against Staphylococcus aureus ST239 assessed as bacterial growth inhibition incubated for 18 hrs by broth microdilution method", "assay_type": "functional"}, "[21]": {"system": "Staphylococcus aureus", "experiment": "Antibacterial activity against gentamicin-resistant Staphylococcus aureus APH2\" AAC6 assessed as bacterial growth inhibition incubated for 18 hrs by broth microdilution method", "assay_type": "functional"}, "[22]": {"system": "Staphylococcus aureus", "experiment": "Antibacterial activity against fusidic acid-resistant Staphylococcus aureus APH4' assessed as bacterial growth inhibition incubated for 18 hrs by broth microdilution method", "assay_type": "functional"}, "[23]": {"system": "Staphylococcus aureus", "experiment": "Antibacterial activity against methicillin-resistant Staphylococcus aureus RN4220/pUL5054 overexpressing MsrA efflux pump assessed as bacterial growth inhibition incubated for 18 hrs by broth microdilution method", "assay_type": "functional"}, "[24]": {"system": "Staphylococcus aureus", "experiment": "Antibacterial activity against kanamycin-resistant Staphylococcus aureus APH3' assessed as bacterial growth inhibition incubated for 18 hrs by broth microdilution method", "assay_type": "functional"}, "[25]": {"system": "Staphylococcus aureus", "experiment": "Antibacterial activity against Staphylococcus aureus 10 assessed as bacterial growth inhibition incubated for 24 hrs by broth microdilution method", "assay_type": "functional"}, "[26]": {"system": "Escherichia coli", "experiment": "Antibacterial activity against Escherichia coli 06 assessed as bacterial growth inhibition incubated for 24 hrs by broth microdilution method", "assay_type": "functional"}, "[27]": {"system": "Pseudomonas aeruginosa", "experiment": "Antibacterial activity against Pseudomonas aeruginosa 24 assessed as bacterial growth inhibition incubated for 24 hrs by broth microdilution method", "assay_type": "functional"}}, "data": [{"smiles": "COc1c(O)c(OC)c2oc(-c3ccc(O)cc3)c(OC)c(=O)c2c1O", "values": [{"measurement": "MIC", "setting": "[1]", "result": 75, "unit": "µg/mL"}, {"measurement": "MIC", "setting": "[2]", "result": "> 800", "unit": "µg/mL"}]}, {"smiles": "COC(=O)/C=C/c1ccc(OCC(=O)Nc2ccc(C)cc2)c(OC)c1", "values": [{"measurement": "fractional inhibitory concentration index (FICI)", "setting": "[3]", "result": 0.75}, {"measurement": "MIC", "setting": "[4]", "result": "> 125", "unit": "µg/mL"}, {"measurement": "MIC", "setting": "[5]", "result": 2, "unit": "µg/mL"}, {"measurement": "MIC", "setting": "[6]", "result": 64, "unit": "µg/mL"}, {"measurement": "MIC", "setting": "[7]", "result": 4, "unit": "µg/mL"}]}, {"smiles": "CC1=CC[C@@H]([C@@](C)(O)CCCC(C)C)CC1", "values": [{"measurement": "MIC", "setting": "[8]", "result": "≥ 1020", "unit": "µg/mL"}, {"measurement": "MIC", "setting": "[9]", "result": 32, "unit": "µg/mL"}, {"measurement": "MIC", "setting": "[10]", "result": 128, "unit": "µg/mL"}, {"measurement": "MIC", "setting": "[11]", "result": "≥ 1020", "unit": "µg/mL"}]}, {"smiles": "CC1=CCC[C@@]2(C)[C@@]1(C)CC[C@@H](C)[C@]2(C)CCC1=CC(=O)O[C@@H]1O", "values": [{"measurement": "MIC", "setting": "[12]", "result": 15.6, "unit": "µg/mL"}, {"measurement": "fractional inhibitory concentration index (FICI)", "setting": "[13]", "result": 0.324}, {"measurement": "fractional inhibitory concentration index (FICI)", "setting": "[14]", "result": 0.315}, {"measurement": "fractional inhibitory concentration index (FICI)", "setting": "[15]", "result": 0.324}]}, {"smiles": "CC(C)/C=C/CCCCC(=O)NCc1ccc(O)c(OCc2nnc(Nc3cccc(Br)c3)o2)c1", "values": [{"measurement": "MIC", "setting": "[16]", "result": 0.12, "unit": "µg/mL"}, {"measurement": "MIC", "setting": "[17]", "result": 0.5, "unit": "µg/mL"}, {"measurement": "MEC", "setting": "[18]", "result": 12.5, "unit": "µg/mL"}]}, {"smiles": "O=c1cc(-c2ccccc2)oc2cc(O)c(O)c(O)c12", "note": "[BAICALEIN]", "values": [{"measurement": "MIC", "setting": "[19]", "result": 128, "unit": "µg/mL"}, {"measurement": "MIC", "setting": "[20]", "result": 128, "unit": "µg/mL"}, {"measurement": "MIC", "setting": "[21]", "result": 128, "unit": "µg/mL"}, {"measurement": "MIC", "setting": "[22]", "result": 128, "unit": "µg/mL"}, {"measurement": "MIC", "setting": "[23]", "result": 64, "unit": "µg/mL"}, {"measurement": "MIC", "setting": "[24]", "result": 64, "unit": "µg/mL"}]}, {"smiles": "C=C1CC/C=C(\\C)CC[C@@H]2[C@@H]1CC2(C)C", "note": "[BETA-CARYOPHYLLENE]", "values": [{"measurement": "MIC", "setting": "[25]", "result": 32, "unit": "µg/mL"}, {"measurement": "MIC", "setting": "[26]", "result": "≥ 1020", "unit": "µg/mL"}, {"measurement": "MIC", "setting": "[27]", "result": "≥ 1020", "unit": "µg/mL"}]}]}
